Assay results as given in paper PMC3589550 (Nature structural & molecular biology, 2011).
Ends that are not written are not given here.

How the values were obtained:
HAUSP TRAF domain = assay: Competitive ITC: vIRF4^202–216 vs cellular substrate peptides on the TRAF domain; assay type: binding
BJAB cells = assay: Immunoblot of p53 pathway proteins, BJAB; assay type: cell-based; conditions: 6 h
PEL cells = assay: Immunoblot of p53 and transcriptional targets, PEL cells; assay type: cell-based; conditions: various PEL cells, 6 h
HAUSP [1] = target: T1, HAUSP (Homo sapiens, UniProt Q93009); assay: In vitro deubiquitination; assay type: biochemical
T1 sequence (Q93009 whole entry): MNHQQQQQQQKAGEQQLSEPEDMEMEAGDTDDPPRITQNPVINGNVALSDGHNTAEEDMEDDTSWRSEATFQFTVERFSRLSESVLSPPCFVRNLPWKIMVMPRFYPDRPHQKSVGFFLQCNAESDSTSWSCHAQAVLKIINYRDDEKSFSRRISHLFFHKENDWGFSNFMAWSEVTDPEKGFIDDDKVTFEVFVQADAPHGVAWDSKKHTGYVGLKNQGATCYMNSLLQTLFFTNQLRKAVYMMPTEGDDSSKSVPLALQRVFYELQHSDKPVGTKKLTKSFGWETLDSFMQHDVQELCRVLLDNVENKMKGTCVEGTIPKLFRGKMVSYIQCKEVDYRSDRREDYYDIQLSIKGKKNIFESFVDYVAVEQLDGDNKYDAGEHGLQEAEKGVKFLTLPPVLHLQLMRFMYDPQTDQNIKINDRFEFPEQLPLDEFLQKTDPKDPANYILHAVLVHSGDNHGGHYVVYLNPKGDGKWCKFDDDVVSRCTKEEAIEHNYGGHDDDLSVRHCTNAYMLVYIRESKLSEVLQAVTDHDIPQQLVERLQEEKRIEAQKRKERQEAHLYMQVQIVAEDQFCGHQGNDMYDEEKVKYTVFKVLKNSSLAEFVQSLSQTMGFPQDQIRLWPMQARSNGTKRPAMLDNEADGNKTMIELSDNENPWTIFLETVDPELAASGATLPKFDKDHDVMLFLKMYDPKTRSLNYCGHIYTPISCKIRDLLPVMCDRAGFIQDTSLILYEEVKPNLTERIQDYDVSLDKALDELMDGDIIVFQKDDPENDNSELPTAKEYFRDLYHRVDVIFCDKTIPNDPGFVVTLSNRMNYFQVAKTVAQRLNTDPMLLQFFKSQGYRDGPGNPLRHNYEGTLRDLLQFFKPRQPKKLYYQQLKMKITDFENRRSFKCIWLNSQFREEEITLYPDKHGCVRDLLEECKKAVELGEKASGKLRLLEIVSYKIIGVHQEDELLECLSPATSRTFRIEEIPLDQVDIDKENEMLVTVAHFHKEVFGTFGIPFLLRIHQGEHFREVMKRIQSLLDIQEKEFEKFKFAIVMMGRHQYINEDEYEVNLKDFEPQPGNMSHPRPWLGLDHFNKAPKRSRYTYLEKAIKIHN

HAUSP [2] = target: T1, HAUSP; assay: Co-IP / GST pull-down of HAUSP; assay type: binding; conditions: transfected 293T cells
[3] = target: HAUSP TRAF domain (HAUSP^62–205) (Homo sapiens, UniProt Q93009); assay type: binding; conditions: ITC
Sequence of HAUSP TRAF domain (HAUSP^62–205) (Q93009 62-205): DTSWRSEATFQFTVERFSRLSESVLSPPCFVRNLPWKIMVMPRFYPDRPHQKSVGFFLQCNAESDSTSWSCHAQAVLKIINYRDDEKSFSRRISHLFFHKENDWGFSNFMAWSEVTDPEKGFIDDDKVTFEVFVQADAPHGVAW

HAUSP [4] = target: T1, HAUSP; assay: In vitro DUB assay with ubiquitinated MDM2; assay type: biochemical; conditions: HAUSP preincubated with increasing concentrations of peptide

Molecule	association constant (Ka) (HAUSP TRAF domain; substrate peptide titrated into the HAUSP TRAF domain) [M⁻¹]	HAUSP levels (BJAB cells)	observed association constant (Kobs) (HAUSP TRAF domain; vIRF4^202–216 titrated as competitor against MDM2^137–152) [M⁻¹]	observed association constant (Kobs) (HAUSP TRAF domain; vIRF4^202–216 titrated as competitor against p53^350–364) [M⁻¹]	observed association constant (Kobs) (HAUSP TRAF domain; vIRF4^202–216 titrated as competitor against p53^355–369) [M⁻¹]	HAUSP levels (PEL cells)	HAUSP enzymatic activity against K48-linked polyubiquitin chains (HAUSP [1]; K48-linked polyubiquitin chains)	HAUSP DUB activity (HAUSP [1]; purified HAUSP, K48- or K63-linked 3–7 polyubiquitin chains)	interaction with HAUSP (HAUSP [2])	TRAF binding affinity, in words [3]	HAUSP DUB activity toward ubiquitinated MDM2 (HAUSP [4])
DLVQELQEEKPSSSHL [MDM2^137–152, reference compound]	91000										
CC[C@H](C)[C@H](NC(=O)[C@H](Cc1c[nH]c2ccccc12)NC(=O)[C@@H](NC(=O)[C@@H](N)CO)C(C)C)C(=O)N1CCC[C@H]1C(=O)N[C@H](C(=O)N[C@@H](CC(N)=O)C(=O)N[C@@H](CCC(=O)O)C(=O)NCC(=O)N[C@@H](C)C(=O)N[C@@H](CO)C(=O)N[C@H](C(=O)N[C@@H](CO)C(=O)NCC(=O)N[C@@H](CCSC)C(=O)O)[C@@H](C)O)C(C)C [vif1]		Neither the vif1 nor vif2 peptide treatment altered HAUSP levels	1.09e+07	4.42e+07	3.58e+07	Neither the vif1 nor vif2 peptide treatment altered HAUSP levels	ineffectiveness against K48-linked polyubiquitin chains	minimally inhibited activity	individually capable of interacting with HAUSP	binds to the HAUSP TRAF domain with the highest affinity among all reported substrates	effectively blocked HAUSP DUB activity when ubiquitinated MDM2 was used as a substrate
